Test results reported in the SangsterLogP compilation.

Assay: method code SF-HPLC, from DOI: 10.1002/jps.1029, PMID: 11357176

logP	Structure (SMILES)
2.08	O=c1ccc2cc3ccoc3cc2o1
2.07	COc1c2occc2cc2ccc(=O)oc12

Assay: not given

Structure (SMILES)	logP
Cc1c2ccoc2cc2oc(=O)ccc12	2.33
Cc1sc2cc3oc(=O)cc(C)c3cc2c1C	3.48
COc1c2oc(=O)c(C)cc2cc2c(C)c(C)oc12	3.28
O=c1ccc2cc3ccsc3cc2s1	2.96
Cc1coc2c(C)c3oc(=O)ccc3cc12	2.81
Cc1cc2occ(C)c2c2oc(=O)ccc12	2.92
Cc1c(C)c2cc(C)c3occc3c2oc1=O	3.23
Cc1cc(=O)oc2c1ccc1occ(C)c12	2.81
Cc1oc2ccc3ccc(=O)oc3c2c1C	2.94
Cc1oc2c(C)cc3ccc(=O)oc3c2c1C	3.34
Cc1cc(=O)[nH]c2c1cc(C)c1occ(C)c12	3.13
O=c1ccc2ccc3occc3c2s1	2.58
Cc1cc2c(o1)c(C)cc1c(C)cc(=O)oc12	3.15
O=c1ccc2ccc3occc3c2[nH]1	1.82
Cc1oc2c(C)cc3c(C)cc(O)nc3c2c1C	3.5
Cc1c(C)c2cc3c(C)coc3c(C)c2oc1=O	3.62

Structure (SMILES)	logP
Cc1coc2c1c(C)cc1oc(=O)cc(C)c12	3.28
Cc1sc2c(C)cc3c(C)cc(=O)oc3c2c1C	4.09
Cc1coc2nc3oc(=O)cc(C)c3cc12	1.82
Cc1cc(=O)oc2c1cc(C)c1occ(C)c12	3.23
Cc1c(C)c2ccc3occ(C)c3c2oc1=O	3.25
Cc1c(C)c2cc3ccoc3cc2oc1=O	2.77
Cc1cc(=O)oc2c1cc(C)c1occc12	2.79
Cc1cc2ccc(=O)oc2c2ccoc12	2.43
Cc1cc2c(o1)c(C)cc1c(C)cc(=O)n(C)c12	3.43
Cc1oc2cc3oc(=O)ccc3cc2c1C	2.93
Cc1cc2cc3c(C)cc(=O)oc3cc2o1	2.82
Cc1cc2c(ccc3c(C)cc(=O)n(C)c32)o1	3.08
Cc1cc2c(C)cc3oc(=O)cc(C)c3c2o1	3.25
Cc1oc2ccc3c(C)cc(=O)[nH]c3c2c1C	3.18
Cc1c(C)c2occc2c2oc(=O)ccc12	2.84

Second part, the molecule after the results:

logP	Structure (SMILES)
2.76	Cc1coc2cc3oc(=O)cc(C)c3cc12
2.49	Cc1cc2ccc3occc3c2oc1=O
3.25	Cc1c(C)c2cc3ccoc3c(C)c2oc1=O
2.27	O=c1ccc2cc3ccsc3cc2o1
2.71	Cc1oc2nc3oc(=O)c(C)c(C)c3cc2c1C
2.82	Cc1cc(=O)oc2c(C)c3occc3cc12
3.22	Cc1oc2cc3oc(=O)cc(C)c3cc2c1C
2.66	COc1c2occc2cc2ccc(=O)sc12
2.92	Cc1cc2c(cc(C)c3ccc(=O)oc32)o1
2.84	Cc1cc2c(C)c3ccc(=O)oc3cc2o1
2.19	Cc1oc2nc3oc(=O)ccc3c(C)c2c1C
3.54	Cc1cc2c(ccc3c(C)c(C)c(=O)n(C)c32)o1
3.25	Cc1coc2c(C)c3oc(=O)cc(C)c3cc12
3.35	Cc1c2oc(=O)ccc2c(C)c2c(C)coc12
1.73	Cc1coc2nc3oc(=O)ccc3c(C)c12
3.65	Cc1sc2ccc3c(C)cc(=O)oc3c2c1C
2.97	Cc1cc2c(ccc3cc(C)c(=O)oc32)o1
2.61	O=c1ccc2cc3ccoc3cc2s1
2.79	Cc1cc2c(ccc3c(C)cc(=O)oc32)o1
2.93	Cc1cc2cc3ccc(=O)oc3c(C)c2o1

logP	Structure (SMILES)
2.97	Cc1cc2ccc3occ(C)c3c2oc1=O
3.26	Cc1cc2c(o1)c(C)c(C)c1ccc(=O)oc12
3.27	Cc1cc2c(ccc3c(C)c(C)c(=O)oc32)o1
2.49	Cc1cc2c(ccc3ccc(=O)oc32)o1
2.25	Cc1coc2nc3oc(=O)cc(C)c3c(C)c12
2.88	Cc1cc2ccc(=O)oc2c2c(C)coc12
3.28	Cc1oc2ccc3c(C)cc(=O)oc3c2c1C
2.5	Cc1cc2occc2c2oc(=O)ccc12
3.3	Cc1cc(=O)n(C)c2c1cc(C)c1occ(C)c12
2.25	Cc1c(C)c2cc3c(C)coc3nc2oc1=O
2.47	Cc1coc2cc3oc(=O)ccc3cc12
2.79	Cc1coc2cc3oc(=O)ccc3c(C)c12
3.25	Cc1cc2cc3c(C)cc(=O)oc3c(C)c2o1
2.85	Cc1cc2c(o1)c(C)cc1ccc(=O)oc12
2.51	Cc1coc2ccc3ccc(=O)oc3c12
3.36	Cc1cc2c(cc(C)c3c(C)cc(=O)oc32)o1
1.97	Cc1oc2cc3oc(=O)ncc3cc2c1C
3.27	Cc1oc2cc3oc(=O)ccc3c(C)c2c1C
2.34	Cc1cc(=O)oc2c1ccc1occc12
2.48	Cc1c2occc2cc2ccc(=O)oc12
